According to patent US6548540B2, “Method of treating cancer using dithiocarbamate derivatives” (Charlotte-Mecklenburg Hospital Authority, priority 1998, dated 2003):
Values belong to the molecule of their own block, whether it stands above or below them.

Legend:
M1619 melanoma cells = assay: MTT proliferation assay, M1619 melanoma; format: cell-based, human; settings: for antiproliferative activity of gold complexed with disulfiram: M1619, compared with DS 160 nM
Experimental: (§1) Human malignant cell lines were obtained from American Type Tissue Culture Collection (Rockville, Md.). Melanoma cells lines CRL 1585 and 1619 were cultured in RPMI 1640 (GIBCO-BRL, Life Technologies, Grand Island, N.Y.) with 10% FBS and passed with nonenzymatic Cell Dissociation Solution® (Sigma). The prostate adenocarcinoma cell line CRL 1435 (PC-3) was also cultured in RPMI 1640 with 10% FBS but passed with 0.05% trypsin and 0.53 mM EDTA. The squamous lung carcinoma NCI-H520 and the adenosquamous lung carcinoma NCI-H596 cell lines were grown in RPMI 1640 supplemented with 10% FBS, 10 mM HEPES and 1.0 mM sodium pyruvate and passed with trypsin/EDTA. The small cell lung carcinoma NCI-H82 was cultured as a suspension in RPMI 1640 with 10% FBS. All of the above were grown in a 37° C. humidified environment containing 5% CO2/air. The breast carcinoma cell line MDA-MB-453 was grown in a 37° C. humidified environment with free gas exchange with atmospheric air using Leibovitz's L-15 medium with 2 mM L-glutamine and 10% FBS and was passed with trypsin/EDTA.
The effect of disulfiram (0.15 to 5.0 μM), diethyldithiocarbamate (DDC, 1.0 μM) or PDTC (0.625 to 5.0 μM) on proliferation of malignant cell lines was studied in cultures stimulated with 10% FBS. Cell numbers were quantitated 24-72 hours later. In some experiments disulfiram or PDTC were added immediately after cells were plated. In other experiments, cells were plated and allowed to grow for 24-72 hours before fresh media with disulfiram or PDTC was added, and cell numbers were assayed 24-72 hours later.
Finally, a number of dithiocarbamate effects on cells have been attributed to increasing the intracellular levels of copper ions. To further probe the role of copper in mediating cytotoxicity from disulfiram, cells were cultured with or without addition of the impermeate Cu^2+ chelator bathocuprioinedisulfonic acid (BCPS, 100 μM) added to medium to sequester Cu^2+ in the extracellular compartment. Cells were also treated 12 hours with various concentration of disulfiram (0.625 to 5.0 μM) and intracellular copper levels were measured as outlined below.
Proliferation of cultured cells was quantitated using a previously reported calorimetric method based upon metabolic reduction of the soluble yellow tetrazolium dye 3-[4,5-dimethylthiazol]-2yl-2,5-diphenyl tetrazolium bromide (MTT) to its insoluble purple formazan by the action of mitochondrial succinyl dehydrogenase (See, e.g., S. J. Hirst, et al., “Quantifying proliferation of cultured human and rabbit airway smooth muscle in response to serum and platelet derived growth factor,” Am. J. Respir. Cell Mol. Biol. 7:574-581 (1992); R. Dashtaki, et al. R., supra; S. S. Brar, et al., “Requirement for reactive oxygen species in serum-induced and platelet-derived growth factor-induced growth of airway smooth muscle,” J. Biol. Chem. 274:20017-20026 (1999)). This assay empirically distinguishes between dead and living cells. For proliferation studies, cells were seeded into 24-well uncoated plastic plates (Costar) at 50,000 cells per well and cultured with respective media and mitogens.

tumor cell lines = assay: Proliferation of tumor cell lines with redox, NO synthase or cyclooxygenase agents (cell line not given); format: cell-based, human
Experimental: Potential redox effects of disulfiram were studied in three sets of experiments. The importance of cellular glutathione (GSH) in mediating or modulating thiocarbamate toxicity was studied by measuring levels of intracellular GSH after treatment with disulfiram. […] Also, to assess whether a nonspecific antioxidant effect of disulfiram or PDTC might account for cellular growth inhibition, we studied the effect of the potent lipophilic antioxidant probucol (1.0 to 1,000 μM) on proliferation of malignant cell lines. […] To explore the role of cyclooxygenase inhibition on tumor cell growth, cells were cultured with or without disulfiram in the presence or absence of the cyclooxygenase-1 (COX1) and cyclooxygenase-2 (COX2) inhibitors indomethacin (5μg/ml) or sodium salicylate (1 mM). To probe whether disulfiram might be inducing growth retardation by interruption or stimulation of NO production, proliferation was studied with and without disulfiram in the presence and absence of the nitric oxide […] inhibitor Nω-nitro-L-arginine added to growth medium (100 μM). […] J. Respir. Cell Mol. Biol. 7:574-581 (1992); […], et al. R., supra; S. S. Brar, et al., “Requirement for reactive oxygen species in serum-induced and platelet-derived growth factor-induced growth of airway smooth muscle,” J. Biol. Chem. 274:20017-20026 (1999)). This assay empirically distinguishes between dead and living cells. For proliferation studies, cells were seeded into 24-well uncoated plastic plates (Costar) at 50,000 cells per well and cultured with respective media and mitogens. […] MTT-containing medium was removed, 0.5 ml dimethylsulfoxide (DMSO) was added to each well, and the absorbance of the solubilized purple formazan dye was measured at 540 nm. A total of 4-6 wells were studied at each treatment condition.

Melanoma M1585 = assay: MTT proliferation assay, M1585 melanoma; format: cell-based; settings: Homo sapiens; M1585 melanoma cells; read-out: 50% inhibitor concentration (IC50)
Experimental: as §1
The effect of disulfiram (0.15 to 5.0 μM), diethyldithiocarbamate (DDC, 1.0 μM) or PDTC (0.625 to 5.0 μM) on proliferation of malignant cell lines was studied in cultures stimulated with 10% FBS. Cell numbers were quantitated 24-72 hours later. In some experiments disulfiram or PDTC were added immediately after cells were plated. In other experiments, cells were plated and allowed to grow for 24-72 hours before fresh media with disulfiram or PDTC was added, and cell numbers were assayed 24-72 hours later. Synergy was studied between disulfiram and N,N′-bis(2-chloroethyl-N-nitrosourea (carmustine or BCNU, 1.0 to 1,000 μM) or cisplatin (0.1 to 100 μg/ml) added to medium. The effect of metals on disulfiram was studied with 0.2 to 10 μM copper (provided as CuSO4), zinc (as ZnCl2), silver (as silver lactate) or gold (as HAuCl4.3H2O) ions added to growth medium. No pH changes occurred with addition of metal salts to culture medium. To provide a biologically relevant source of copper, in some experiments medium was supplemented with human ceruloplasmin at doses replicating low and high normal adult serum concentrations (250 and 500 μg/ml).
Proliferation of cultured cells was quantitated using a previously reported calorimetric method based upon metabolic reduction of the soluble yellow tetrazolium dye 3-[4,5-dimethylthiazol]-2yl-2,5-diphenyl tetrazolium bromide (MTT) to its insoluble purple formazan by the action of mitochondrial succinyl dehydrogenase (See, e.g., S. J. Hirst, et al., “Quantifying proliferation of cultured human and rabbit airway smooth muscle in response to serum and platelet derived growth factor,” Am. J. Respir. Cell Mol. Biol. 7:574-581 (1992); R. Dashtaki, et al. R., supra; S. S. Brar, et al., “Requirement for reactive oxygen species in serum-induced and platelet-derived growth factor-induced growth of airway smooth muscle,” J. Biol. Chem. 274:20017-20026 (1999)). This assay empirically distinguishes between dead and living cells. For proliferation studies, cells were seeded into 24-well uncoated plastic plates (Costar) at 50,000 cells per well and cultured with respective media and mitogens. After 24-96 hours, medium was removed, cells were washed twice with 1 ml of sterile Dulbecco's modified phosphate buffered saline without Ca^2+ or Mg^2+ (DPBS), the medium was replaced with 1 ml/well fresh medium containing 100 μg/ml MTT, and plates were incubated an additional hour. MTT-containing medium was removed, 0.5 ml dimethylsulfoxide (DMSO) was added to each well, and the absorbance of the solubilized purple formazan dye was measured at 540 nm. A total of 4-6 wells were studied at each treatment condition. Preliminary studies were performed with 50-200 μg/ml MTT incubated for 15 minutes to 3 hours to determine the optimum concentration and incubation time at which the rate of conversion was linear and proportional to the number of cells present. […]

Molecule: Cc1cc(-c2ccc(S(=O)(=O)O)cc2)c2ccc3c(-c4ccc(S(=O)(=O)O)cc4)cc(C)nc3c2n1 [BCPS, bathocuproinedisulfonic acid]
effect of Cu2+ chelator on growth inhibition from disulfiram (M1619 melanoma cells; 1.25 μM disulfiram with 50 or 100 μM BCPS, 48 hr): greatly reduces growth inhibition

Molecule: O=NN(CCCl)C(=O)NCCCl [Carmustine]
A540 of MTT Formazan (M1619 melanoma cells; carmustine 1 μM + DMSO vehicle, 24 hours): 0.197 ± 0.004
A540 of MTT Formazan (M1619 melanoma cells; carmustine 10 μM + DMSO vehicle, 24 hours): 0.152 ± 0.011
A540 of MTT Formazan (M1619 melanoma cells; carmustine 100 μM + DMSO vehicle, 24 hours): 0.020 ± 0.002
A540 of MTT Formazan (M1619 melanoma cells; carmustine 1,000 μM + DMSO vehicle, 24 hours): 0.003 ± 0.000

Molecule: N.N.[Cl][Pt][Cl] [Cisplatin, cisplatin]
A540 of MTT Formazan (M1619 melanoma cells; cisplatin 1 ng/ml + DMSO vehicle, added after 48 hours, additional 24 hours): 1.739 ± 0.041
A540 of MTT Formazan (M1619 melanoma cells; cisplatin 10 ng/ml + DMSO vehicle, added after 48 hours, additional 24 hours): 1.447 ± 0.047
A540 of MTT Formazan (M1619 melanoma cells; cisplatin 100 ng/ml + DMSO vehicle, added after 48 hours, additional 24 hours): 1.372 ± 0.052
A540 of MTT Formazan (M1619 melanoma cells; cisplatin 1,000 ng/ml + DMSO vehicle, added after 48 hours, additional 24 hours): 1.381 ± 0.098

Molecule: N=C(NCCC[C@H](N)C(=O)O)N[N+](=O)[O-] [LNAME, Nω-nitro-L-arginine]
increase of cellular growth (tumor cell lines; LNAME alone (100 μM), vs DMSO vehicle control): 23.7±2.3%

Molecule: CCN(CC)C(=S)[S-].O.O.O.[Na+] [NaDDC, sodium diethyldithiocarbamate trihydrate]
antiproliferative activity of the thiolate with DTT in medium (M1619 melanoma cells; NaDDC 1 μM plus DTT 100 μM, 48 hours): reduced by low concentrations of DTT

IC50 (Melanoma M1585): ~1.25 µM
Molecule: S=C(S)N1CCCC1 [PDTC, Pyrrolidinedithiocarbamate]

Molecule: CC(C)(Sc1cc(C(C)(C)C)c(O)c(C(C)(C)C)c1)Sc1cc(C(C)(C)C)c(O)c(C(C)(C)C)c1 [probucol]
growth of tumor cell lines (tumor cell lines; probucol 1.0 to 1,000 μM, data not shown): did not significantly inhibit growth

Molecule: [Cl-].[Cl-].[Zn+2] [zinc chloride]
effect of zinc on antiproliferative potential of disulfiram (M1619 melanoma cells; ZnCl2 with 0.625 μM disulfiram, grown 24 hours, additional 24 hr): substantially enhanced

Molecule: dichloro(diethylthiocarbamyl)gold (II) [AuDS]
antiproliferative activity of gold complexed with disulfiram (M1619 melanoma cells; 48 hr): enhanced antiproliferative activity
antiproliferative activity of gold complexed with disulfiram (M1619 melanoma cells; 48 hr, listed as complex of gold with disulfiram): antiproliferative at nM concentrations

B1: ceruloplasmin: 132-kD glycoprotein carrying 7 copper atoms, the major copper-carrying protein in human plasma (protein, UniProt P00450 20-1065, looked up)
Ceruloplasmin: KEKHYYIGIIETTWDYASDHGEKKLISVDTEHSNIYLQNGPDRIGRLYKKALYLQYTDETFRTTIEKPVWLGFLGPIIKAETGDKVYVHLKNLASRPYTFHSHGITYYKEHEGAIYPDNTTDFQRADDKVYPGEQYTYMLLATEEQSPGEGDGNCVTRIYHSHIDAPKDIASGLIGPLIICKKDSLDKEKEKHIDREFVVMFSVVDENFSWYLEDNIKTYCSEPEKVDKDNEDFQESNRMYSVNGYTFGSLPGLSMCAEDRVKWYLFGMGNEVDVHAAFFHGQALTNKNYRIDTINLFPATLFDAYMVAQNPGEWMLSCQNLNHLKAGLQAFFQVQECNKSSSKDNIRGKHVRHYYIAAEEIIWNYAPSGIDIFTKENLTAPGSDSAVFFEQGTTRIGGSYKKLVYREYTDASFTNRKERGPEEEHLGILGPVIWAEVGDTIRVTFHNKGAYPLSIEPIGVRFNKNNEGTYYSPNYNPQSRSVPPSASHVAPTETFTYEWTVPKEVGPTNADPVCLAKMYYSAVEPTKDIFTGLIGPMKICKKGSLHANGRQKDVDKEFYLFPTVFDENESLLLEDNIRMFTTAPDQVDKEDEDFQESNKMHSMNGFMYGNQPGLTMCKGDSVVWYLFSAGNEADVHGIYFSGNTYLWRGERRDTANLFPQTSLTLHMWPDTEGTFNVECLTTDHYTGGMKQKYTVNQCRRQSEDSTFYLGERTYYIAAVEVEWDYSPQREWEKELHHLQEQNVSNAFLDKGEFYIGSKYKKVVYRQYTDSTFRVPVERKAEEEHLGILGPQLHADVGDKVKIIFKNMATRPYSIHAHGVQTESSTVTPTLPGETLTYVWKIPERSGAGTEDSACIPWAYYSTVDQVKDLYSGLIGPLIVCRRPYLKVFNPRRKLEFALLFLVFDENESWYLDDNIKTYSDHPEKVNKDDEEFIESNKMHAINGRMFGNLQGLTMHVGDEVNWYLMGMGNEIDLHTVHFHGHSFQYKHRGVYSSDVFDIFPGTYQTLEMFPRTPGIWLLHCHVTDHIHAGMETTYTVLQNEDTKSG
effect of ceruloplasmin on antiproliferative activity of disulfiram (M1619 melanoma cells; ceruloplasmin 500 μg/ml with disulfiram, 24 hours): enhance the antiproliferative activity of disulfiram
